Results published in PMC12655060, “Modified Hevein-like Peptide from Amaranthus caudatus as a Promising Agent Against Pathogenic Candida Species” (Pharmaceutics, 2025).
Converted amounts (≈) assume the structure as drawn. “And” between values parts separate entries of the source, which are not always exact repeats. Identical values can stand only once. Like-named read-outs stand apart in the source and are kept apart here. Positions of bridges follow the written chain, without caps; N, C: chain ends. No end group written: not given here.

Columns and labels:
C. albicans ATCC 18804 [1] = format: cell-based, Candida albicans
Protocol: (§1) Serial dilutions of the mixture of two combinable substances were added to the equal volumes of fungal cell suspensions in this case. […] Caspofungin or ebselen in 1% DMSO as well as voriconazole in 1% methanol were tested in these experiments.

C. albicans ATCC 18804 [2] = settings: for MIC, RPMI-1640 / MIC, ½Sabouraud broth: Table S4; for antifungal activity in RPMI-1640: at a concentration of 50 μM
Protocol: (§2) Briefly, fungal cells at a concentration of 4 × 10^4 cells/mL in the Sabouraud broth were mixed with equal volumes of serial dilutions of the peptide in water (final volume 100 μL and pH 6.0) and incubated at 30 °C for 24 h. Inhibition of fungal growth was assessed relative to the peptide-free control, based on absorbance at 630 nm and microscopic analysis. MIC50 and MIC were defined as minimal concentrations of the peptide, causing 50 and 100% inhibition of fungal growth. […] The effects of heating and reduction in disulfide bonds on the activity of the peptide towards C. albicans ATCC 18804 was also tested. […] Tobacco defensin NaD1, whose structure is also stabilized by disulfide bonds, was used for comparison in these experiments. The effect of reduced L-glutathione (AppliChem, Darmstadt, Germany), a component of RPMI-1640 medium, at a final concentration of 3.25 μM, was also studied.
(§3) Each experiment was conducted twice in triplicate. The microplate wells were pre-treated with 0.1% BSA to minimize adsorption of antifungal agents.

C. albicans ATCC 18804 [3] = assay: Resistance induction experiments (serial passage); format: cell-based, Candida albicans; settings: passaging at 0.25 × MIC for 24 days; mAc-AMP2 8th and 24th, caspofungin 21, LL-37 24th passage
Protocol: For comparison, the echinocandin caspofungin, human cathelicidin LL-37, and tobacco defensin NaD1 were used in these experiments. C. albicans ATCC 18804 or ATCC 10231 at a concentration of 4 × 10^4 cells/mL were added to serial dilutions of antifungal agents. The 96-well microplates were incubated overnight at 30 °C and MIC values were determined as described above. […] Sequential passaging followed by MIC determination continued for 24 days. […] After that whole cultures as well as single colonies were used for MICs determination to confirm the stability of acquired resistance to the peptide.

C. albicans ATCC 18804 [4] = tested on: C. albicans ATCC 18804; set-up: method as in PMID 39770352, PMID 39337545; settings: 2 h, same conditions; cited from earlier work
C. albicans 8.2 [5] = assay: Antifungal microdilution assay; format: cell-based; settings: Candida albicans, Sabouraud broth
Protocol: as §2, §3

C. albicans 8.2 [6] = assay: Prevention of adhesion to the plastic surface; format: cell-based, Candida albicans; settings: for Cell adhesion, % / Inhibition of adhesion, %: plastic surface
Protocol: The plates were incubated for 1.5 h at 37 °C; after that, plate wells were washed twice with PBS to remove unattached C. albicans cells. Adherent cells were detached by microplate incubation for 45 min with trypsin/EDTA solution. Enzymatic activity was stopped by an addition of 10% FBS. After that the well contents were scraped, diluted 100-fold with PBS, and plated on Sabouraud agar with glucose and chloramphenicol. In this case, adhesion was calculated as ((N × 100)/5 × 10^5) × 100%, and adhesion inhibition was calculated as described above. These experiments were carried out twice in triplicate.

[7] = tested on: Caco-2 cells in a monolayer; assay: Cytotoxicity assay (resazurin); format: cell-based, human; settings: 12.5 µM, 24 h
Protocol: Then 10 µL of resazurin at a concentration of 0.7 mM was added and the incubation was continued for 4 h. Untreated cells and cells in the presence of 0.1% Triton X-100 were used as negative and positive controls, respectively. The cell viability was estimated by resorufin fluorescence registered at 595 nm as (Fsample/Fcontrol) × 100%. Wells containing no cells were used to subtract background fluorescence. This experiment was carried out twice in duplicate.

C. albicans 8.2 [8] = format: cell-based, Candida albicans; settings: for [A]/MICA: ratio for mAc-AMP2 in the combination; for [B]/MICB: ratio for the named agent in the combination
Protocol: as §1

C. albicans 9.1 [9] = format: cell-based, Candida albicans; settings: for [A]/MICA: ratio for mAc-AMP2 in the combination; for [B]/MICB: ratio for the named agent in the combination
Protocol: as §1

C. albicans 9.1 [10] = settings: 12.5 μM (2 × MIC) and 25 μM (4 × MIC), same conditions; cited from earlier work
C. albicans 8.2 [11] = settings: 12.5 μM (2 × MIC) and 25 μM (4 × MIC), same conditions; cited from earlier work
C. albicans ATCC 18804 [12] = assay: Calcofluor White binding assay (cell wall chitin content); format: cell-based, Candida albicans; settings: at MIC
Protocol: Polyene antimycotic amphotericin B (AmB) was also used in these experiments. […] Cell cultures were harvested, washed twice with PBS, and stained with 20 μg/mL CFW in PBS for 30 min. After that stained cells were washed three times with PBS and the cell density of each group was adjusted to 10^6 cells/mL using Cell Counter LUNA-II (Logos Biosystems, Anyang-si, Republic of Korea) and trypan blue. Unstained or stained untreated by antifungal agent cells were used as negative and positive controls, respectively. Fluorescence intensities were measured at 20 °C using a Hitachi F-2710 spectrofluorometer (Hitachi High Technologies America Inc., Pleasanton, CA, USA) with excitation and emission wavelengths of 350 nm (10 nm width) and 435 nm, respectively. Results were expressed as % of fluorescence intensity in comparison to positive control. This study was performed twice in triplicate.

[13] = ratio of mAc-AMP2 concentration in the combination with the named agent to its MIC
[14] = ratio of the named agent's concentration in combination with mAc-AMP2 to its MIC
[15] = combination of the named agent with mAc-AMP2

Compound: C[C@@H](c1ncncc1F)[C@](O)(Cn1cncn1)c1ccc(F)cc1F [Voriconazole]
- FICI (C. albicans ATCC 18804 [1]; combination with mAc-AMP2, for voriconazole MIC50 values were used): 2
- [A]/MICA (C. albicans ATCC 18804 [1]; ratio for mAc-AMP2 in the combination, for voriconazole MIC50 values were used): 1
- [B]/MICB (C. albicans ATCC 18804 [1]; ratio for voriconazole in the combination, MIC50 values were used): 1

Compound: CC[C@H](C)[C@H](NC(=O)[C@H](CCCCN)NC(=O)[C@H](CCC(=O)O)NC(=O)[C@H](CCCCN)NC(=O)[C@H](CO)NC(=O)[C@H](CCCCN)NC(=O)[C@H](CCCNC(=N)N)NC(=O)[C@H](Cc1ccccc1)NC(=O)[C@H](Cc1ccccc1)NC(=O)[C@H](CC(=O)O)NC(=O)CNC(=O)[C@H](CC(C)C)NC(=O)[C@@H](N)CC(C)C)C(=O)NCC(=O)N[C@@H](CCCCN)C(=O)N[C@@H](CCC(=O)O)C(=O)N[C@@H](Cc1ccccc1)C(=O)N[C@@H](CCCCN)C(=O)N[C@@H](CCCNC(=N)N)C(=O)N[C@H](C(=O)N[C@H](C(=O)N[C@@H](CCC(N)=O)C(=O)N[C@@H](CCCNC(=N)N)C(=O)N[C@H](C(=O)N[C@@H](CCCCN)C(=O)N[C@@H](CC(=O)O)C(=O)N[C@@H](Cc1ccccc1)C(=O)N[C@@H](CC(C)C)C(=O)N[C@@H](CCCNC(=N)N)C(=O)N[C@@H](CC(N)=O)C(=O)N[C@@H](CC(C)C)C(=O)N[C@H](C(=O)N1CCC[C@H]1C(=O)N[C@@H](CCCNC(=N)N)C(=O)N[C@H](C(=O)N[C@@H](CCC(=O)O)C(=O)N[C@@H](CO)C(=O)O)[C@@H](C)O)C(C)C)[C@@H](C)CC)C(C)C)[C@@H](C)CC [LL-37]
- MIC, RPMI-1640 (C. albicans ATCC 18804 [2]): > 50 µM
- MIC, ½Sabouraud broth (C. albicans ATCC 18804 [2]; ½Sabouraud broth): 12.5 µM (≈ 56.2 µg/mL)
- antifungal activity in RPMI-1640 (C. albicans ATCC 18804 [2]): did not exhibit antifungal activity
- MIC (C. albicans ATCC 18804 [2]; microdilution, ½Sabouraud broth, pH 6.0, no salts, no FBS, 30 °C, 24 h, 100% growth inhibition, twice in triplicate): 12.5 µM
- MIC increase during serial passage (C. albicans ATCC 18804 [3]): two-fold
- [A]/MICA (C. albicans ATCC 18804 [1]; [13]): 0.5
- [B]/MICB (C. albicans ATCC 18804 [1]; [14]): 0.5

Compound: CC[C@H](C)C[C@H](C)CCCCCCCCC(=O)N[C@H]1C[C@@H](O)[C@@H](NCCN)NC(=O)[C@@H]2[C@@H](O)CCN2C(=O)[C@H]([C@H](O)CCN)NC(=O)[C@H]([C@H](O)[C@@H](O)c2ccc(O)cc2)NC(=O)[C@@H]2C[C@@H](O)CN2C(=O)[C@H]([C@@H](C)O)NC1=O [Caspofungin]
- effect on PI uptake (C. albicans ATCC 18804 [4]): no effects
- MIC (C. albicans 8.2 [5]): 0.04 µg/mL (≈ 0.0366 µM)
- inhibition at 5.12 µg/mL (C. albicans 8.2 [6]; Candida albicans, 8.2, read-out: Inhibition of adhesion): ~40%
- MIC increase during serial passage (C. albicans ATCC 18804 [3]): eight-fold
- FICI (C. albicans ATCC 18804 [1]; [15]): 2
- [A]/MICA (C. albicans ATCC 18804 [1]; [13]): 1
- [B]/MICB (C. albicans ATCC 18804 [1]; [14]): 1

Compound: melittin
- cell death [7]: about 100%

Compound: O=c1c2ccccc2[se]n1-c1ccccc1 [Ebselen]
- FICI (C. albicans 8.2 [8]; combination of the named agent with mAc-AMP2, strain 8.2): 0.75
- [A]/MICA (C. albicans 8.2 [8]; strain 8.2): 0.5
- [B]/MICB (C. albicans 8.2 [8]; strain 8.2): 0.25
- FICI (C. albicans ATCC 18804 [1]; [15]): 1
- [A]/MICA (C. albicans ATCC 18804 [1]; [13]): 0.5
- [B]/MICB (C. albicans ATCC 18804 [1]; [14]): 0.5
- FICI (C. albicans 9.1 [9]; combination of the named agent with mAc-AMP2, strain 9.1): 1
- [A]/MICA (C. albicans 9.1 [9]; strain 9.1): 0.5
- [B]/MICB (C. albicans 9.1 [9]; strain 9.1): 0.5

Compound: RECKTESNTFPGICITKPPCRKACISEKFTDGHCSKILRRCLCTKPC (disulfide 3-47, 14-34, 20-41, 24-43 (inferred)) [NaD1]
- effect on adhesion to the Caco-2 cell monolayer (C. albicans 9.1 [10]): effectively inhibited the adhesion
- MFC (C. albicans ATCC 18804 [2]; ATCC 18804, 24 h): 25 µM
- MIC (C. albicans ATCC 18804 [2]; ATCC 18804, 24 h): 6.25 µM
- MFC (C. albicans ATCC 18804 [2]; ATCC 18804, 24 h, pH 6): 12.5 µM
- MIC (C. albicans ATCC 18804 [2]; ATCC 18804, 24 h, pH 6): 6.25 µM
- Cell adhesion, % (C. albicans 8.2 [6]; 3.13 μM): 5.29%
- Cell adhesion, % (C. albicans 8.2 [6]; 6.25 μM): 0.96%
- Inhibition of adhesion, % (C. albicans 8.2 [6]; 6.25 μM): 81.32%
- Cell adhesion, % (C. albicans 8.2 [6]; 12.5 μM, Sabouraud broth, 1.5 h, 37 °C): 0.15%
- Inhibition of adhesion, % (C. albicans 8.2 [6]; 12.5 μM): 97.12% and ~100%
- Cell adhesion, % (C. albicans 8.2 [6]; 25 μM, Sabouraud broth, 1.5 h, 37 °C): 0.05%
- Inhibition of adhesion, % (C. albicans 8.2 [6]; 25 μM): 99.03%
- MIC increase during serial passage (C. albicans ATCC 18804 [3]): no change in the sensitivity
- FICI (C. albicans 8.2 [8]; 8.2): 1
- [A]/MICA (C. albicans 8.2 [8]; strain 8.2): 0.5
- [B]/MICB (C. albicans 8.2 [8]; strain 8.2): 0.5
- FICI (C. albicans ATCC 18804 [1]): 0.75
- [A]/MICA (C. albicans ATCC 18804 [1]; [13]): 0.5
- [B]/MICB (C. albicans ATCC 18804 [1]; [14]): 0.25
- FICI (C. albicans 9.1 [9]; 9.1): 1
- [A]/MICA (C. albicans 9.1 [9]; strain 9.1): 0.5
- [B]/MICB (C. albicans 9.1 [9]; strain 9.1): 0.5
- effect on adhesion to the Caco-2 cell monolayer (C. albicans 8.2 [11]): effectively inhibited the adhesion

Compound: C[C@@H]1[C@H](O)[C@@H](C)/C=C/C=C/C=C/C=C/C=C/C=C/C=C/[C@H](O[C@@H]2O[C@H](C)[C@@H](O)[C@H](N)[C@@H]2O)C[C@@H]2O[C@](O)(C[C@@H](O)C[C@@H](O)[C@H](O)CC[C@@H](O)C[C@@H](O)CC(=O)O[C@H]1C)C[C@H](O)[C@H]2C(=O)O [amphotericin B]
- fluorescence intensity of Calcofluor White-stained cells (C. albicans ATCC 18804 [12]): reduced
- effect on PI uptake (C. albicans ATCC 18804 [4]): no effects

Compound: GIGDPVTCLKSGAICHPVFCPRRYKQIGTCGLPGTKCCKKP (disulfide 8-37, 15-30, 20-38 (inferred)) [HBD2]
- MIC, RPMI-1640 (C. albicans ATCC 18804 [2]): > 50 µM
- MIC, ½Sabouraud broth (C. albicans ATCC 18804 [2]; ½Sabouraud broth): 6.25 µM
- antifungal activity in RPMI-1640 (C. albicans ATCC 18804 [2]): did not exhibit antifungal activity
- [A]/MICA (C. albicans ATCC 18804 [1]; [13]): 0.5
- [B]/MICB (C. albicans ATCC 18804 [1]; [14]): 0.5
